Source: patent publication US4241056A, “Penicillins and salts thereof” (Boehringer Ingelheim GmbH, priority 1978, dated 1980)
In brackets after ≈: the same amount, converted by molar mass. Where two headings read alike, the source gives them in different places.

What was measured:
[1] = test system: escherichia coli ATCC 11775; assay: MIC, serial dilution test in the microtiter system; type: cell-based; conditions: ATCC11775, 18 h, E. coli ATCC 11775, 37° C., 18-20 hours
Description: (§1) The tests were performed according to the method of the serial dilution test in the microtiter system. The effect of the substances on bacteriostasis was examined in a fluid medium. The activity on bacteriostatis was examined at the following concentrations:
(§2) 10 gm of peptone, 8 gm of meat extract-oxoid, 3 gm of sodium chloride, 2 gm of sec. sodium phosphate were diluted with distilled water to 1000 ml (pH 7.2-7.4). Only in the test against streptococci 1% of glucose was added. The age of the primary cultures was about 20 hours. The standardizations of the pathogen suspension was effected by using a photometer according to "Eppendorf" (test tube diameter 14 mm, filter 546 nm) with the aid of the turbidity of a comparison suspension consisting of barium sulfate, this suspension being prepared by addition of 3.0 ml of 1% barium chloride solution to 97 ml of 1% sulfuric acid. After the standardization, streptococcus aronson were further diluted to a concentration of 1:15 and the other germs to a concentration of 1:1500 by menas of a sodium chloride solution.
(§3) 16 mg of the test substance were put into a 10 ml measuring flask and filled up to the mark with the solvent. The further dilution series was standardized with distilled water or the respective solvent.
(§4) The cavities of the microtiter plates were filled with 0.2 ml of nutrient medium. Then, 0.01 ml of the corresponding test substance dilution was added and inoculated with 0.01 ml of the standardized suspension. The bacteria were incubated at 37° C. for 18-20 hours. Control tests merely using the solvent were carried out simultaneously.
(§5) The measurement was carried out macroscopically to determine the minimal inhibitory (threshold) concentration, i.e. the lowest still bacteriostatically effective concentration.
(§6) Staphylococcus aureus SG 511, streptococcus aronson, streptococcus faecalis ATCC 10541, escherichia coli ATCC 9637, 11 775 and escherichia coli 12593/74 (β-lactamase carrier), pseudomonas aeruginosa hamburgensis and ATCC 10145, serratia marcescens ATCC 13 880, klebsiella pneumoniae ATCC 10 031 and 272 and proteus mirabilis hamburgensis.

[2] = test system: escherichia coli ATCC 9637; assay: MIC, serial dilution test in the microtiter system; type: cell-based; conditions: ATCC9637, 18 h, E. coli ATCC 9637, 37° C., 18-20 hours
Description: as §1, §2, §3, §4, §5, §6

[3] = test system: pseudomonas aeruginosa ATCC 10145; assay: MIC, serial dilution test in the microtiter system; type: cell-based; conditions: ATCC10145, 18 h, pseud. aerug. ATCC 10145, 37° C., 18-20 hours
Description: as §1, §2, §3, §4, §5, §6

[4] = test system: pseudomonas aeruginosa hamburgensis; assay: MIC, serial dilution test in the microtiter system; type: cell-based; conditions: 18 h, pseud. aerug. hamb., 37° C., 18-20 hours
Description: as §1, §2, §3, §4, §5, §6

E. coli ATCC 11775 [5] = assay: Influence of the size of the inoculum on the MIC-values; type: cell-based; conditions: Escherichia coli
Description: (§7) For the penicillins C and H, which are typical representatives for this invention, the influence of the size of the inoculum on the MIC-values against ps. aerug. hamburg. and E. coli ATCC 11775 in the microtiter system was determined. Thereby 3 different sizes of inoculum (3.3×10^6, 3.3×10^4 and 3.3×10^2 in E. coli and 4.7×10^6, 4.7×10^4 and 4.7×10^2 in pseudomonas) were used. The reference system was again penicillin Q.

pseud. aerug. hamburg. = assay: as above; type: cell-based; conditions: Pseudomonas aeruginosa
Description: as §7

[6] = Serum (blood) level in rats; type: in vivo; conditions: rat, average from 3 rats; for concentration at 0.5 h: 30 min.; for concentration at 1 h: 60 min.; for concentration at 2 h: 120 min.
Description: For the determination of the serum level in rats, typical representatives of the penicillins according to the invention were administered at a dosage of 10 mg/kg subcutaneously or 100 mg/kg per os to groups of 3 female FW 49 rats (weight 100 to 130 gm) each. Blood tests taken from the heart were worked up, and the obtained sera were tested by the cylinder test-agar diffusion method on plates with sarcina lutea ATCC 15957. The samples were compared with standard curves.

E. coli ATCC 11775 [7] = assay: In vivo activity against experimental infection in mice; set-up: species or system mouse (NMRI); conditions: Escherichia coli, 168 h, 7 days observation, read-out: ED50 (dose at which 50% of the animals survived)
Description: (§8) A number of compounds of this invention were tested in vivo in mice against experimental infections. Bacteria E. coli ATCC 11775 and pseudomonas aeruginosa walter were used as pathogens. An intraperitoneal infection with 0.2 ml of a 5% mucin suspension of the bacteria was induced. This corresponds to about 2×10^6 germs E. coli and 8×10^5 germs pseudomonas/mouse. Female NMRI mice were divided into groups of 10 animals each, two control groups remained untreated, the remaining groups were treated with different doses of the respective penicillins for the determination of the ED50 (dose at which 50% of the animals survived). The groups with the E. coli infection were treated with the substance 3 times on the first day (1, 4 and 7 hours post-infectionem) and for 2 days thereafter twice a day. The groups with the pseudomonas infection were treated with the substance applied 6 times on the first day (1, 3, 6, 9, 12, and 15 hours post-infectionem) and for 2 days thereafter twice a day. The observation time was in both cases 7 days.

[8] = test system: pseudomonas aeruginosa walter; assay: as above; set-up: species or system mouse (NMRI); conditions: sc, 168 h, subcutaneous, 7 days observation, read-out: ED50 (dose at which 50% of the animals survived)
Description: as §8

Pseudomonas = conditions: in vivo as well as in vitro; cited from earlier work
[9] = test system: Staphylococcus aureus SG 511; assay: MIC, serial dilution test in the microtiter system; type: cell-based; conditions: SG511, 18 h, Staph. Aureus SG 511, 37° C., 18-20 hours
Description: as §1, §2, §3, §4, §5, §6

[10] = test system: escherichia coli 12593/74 (β-lactamase carrier); assay: MIC, serial dilution test in the microtiter system; type: cell-based; conditions: 18 h, E. coli 12593/74 (β-lactamase carrier), 37° C., 18-20 hours
Description: as §1, §2, §3, §4, §5, §6

[11] = test system: klebsiella pneumoniae 272; assay: MIC, serial dilution test in the microtiter system; type: cell-based; conditions: 18 h, klebs pneum. 272, 37° C., 18-20 hours
Description: as §1, §2, §3, §4, §5, §6

[12] = test system: klebsiella pneumoniae ATCC 10 031; assay: MIC, serial dilution test in the microtiter system; type: cell-based; conditions: 18 h, klebs pneum ATCC 10031, 37° C., 18-20 hours
Description: as §1, §2, §3, §4, §5, §6

[13] = test system: proteus mirabilis hamburgensis; assay: MIC, serial dilution test in the microtiter system; type: cell-based; conditions: 18 h, prot. mirabilis, 37° C., 18-20 hours
Description: as §1, §2, §3, §4, §5, §6

[14] = test system: serratia marcescens ATCC 13 880; assay: MIC, serial dilution test in the microtiter system; type: cell-based; conditions: ATCC13, 18 h, serrat marcesc., 37° C., 18-20 hours
Description: as §1, §2, §3, §4, §5, §6

streptococcus aronson = assay: MIC, serial dilution test in the microtiter system; type: cell-based; conditions: 18 h, strept. aronson, 1% glucose added, 37° C., 18-20 hours
Description: as §1, §2, §3, §4, §5, §6

[15] = test system: streptococcus faecalis ATCC 10541; assay: MIC, serial dilution test in the microtiter system; type: cell-based; conditions: Enterococcus faecalis, ATCC10541, 18 h; strept. faecal.; 37° C., 18-20 hours
Description: as §1, §2, §3, §4, §5, §6

[16] = ATCC11775, inoculum 3.3 × 10^2 germs/ml
[17] = ATCC11775, inoculum 3.3 × 10^4 germs/ml
[18] = ATCC11775, inoculum 3.3 × 10^6 germs/ml

| Compound | MIC [1] [mg/L] | MIC [2] [mg/L] | MIC [3] [mg/L] | MIC [4] [mg/L] | MIC (E. coli ATCC 11775 [5]; [16]) [mg/L] | MIC (E. coli ATCC 11775 [5]; [17]) [mg/L] | MIC (E. coli ATCC 11775 [5]; [18]) [mg/L] | MIC (pseud. aerug. hamburg.; inoculum 4.7 × 10^2 germs/ml) [mg/L] | MIC (pseud. aerug. hamburg.; inoculum 4.7 × 10^4 germs/ml) [mg/L] | MIC (pseud. aerug. hamburg.; inoculum 4.7 × 10^6 germs/ml) [mg/L] | concentration at 0.5 h ([6]; oral 100 mg/kg) [µg/mL] | concentration at 1 h ([6]; oral 100 mg/kg) [µg/mL] | concentration at 2 h ([6]; oral 100 mg/kg) [µg/mL] | concentration at 0.5 h ([6]; sc, subcutaneous 10 mg/kg) [µg/mL] | concentration at 1 h ([6]; sc, subcutaneous 10 mg/kg) [µg/mL] | concentration at 2 h ([6]; sc, subcutaneous 10 mg/kg) [µg/mL] | ED50 (E. coli ATCC 11775 [7]; ATCC11775, po, peroral) [mg/kg] | ED50 (E. coli ATCC 11775 [7]; ATCC11775, sc, subcutaneous) [mg/kg] | ED50 [8] [mg/kg] | MIC [9] [mg/L] | further results |
| --- | --- | --- | --- | --- | --- | --- | --- | --- | --- | --- | --- | --- | --- | --- | --- | --- | --- | --- | --- | --- | --- |
| CC1(C)S[C@@H]2[C@H](NC(=O)[C@H](NC(=O)N3CCNC3=O)c3ccccc3)C(=O)N2[C@H]1C(=O)O [Q, reference compound] | 10 (≈ 21.7 µM) | 20 (≈ 43.3 µM) | 5 (≈ 10.8 µM) | 10 (≈ 21.7 µM) | 10 (≈ 21.7 µM) | 10 (≈ 21.7 µM) | 10 (≈ 21.7 µM) | 5 (≈ 10.8 µM) | 10 (≈ 21.7 µM) | > 80 | 0.8 | 0.6 | 0.3 | 2.8 | 3.7 | 0.4 | 320 | 35 | 110 | – | – |
| CC1(C)S[C@@H]2[C@H](NC(=O)C(c3ccccc3)S(=O)(=O)O)C(=O)N2[C@H]1C(=O)O (some centres unmarked) [Sulbenicillin] | – | – | – | – | – | – | – | – | – | – | – | – | – | – | – | – | – | – | – | – | antipseudomonal activity (Pseudomonas): only a poor activity |
| CC1(C)S[C@@H]2[C@H](NC(=O)[C@H](NC(=O)Nc3cnc(C4CC4)nc3O)c3ccc(O)cc3)C(=O)N2[C@H]1C(=O)O [C, D-α-[3-(2-cyclopropyl-4-hydroxy-5-pyrimidyl)-ureido]-p-hdroxybenzyl-penicillin sodium] | 1.25 | 2.5 | 1.25 | 2.5 | 2.5 | 2.5 | 2.5 | 2.5 | 5 | > 80 | 3.3 | 4.8 | 1 | 5.1 | 6.8 | 0.4 | 30 | 1.5 | 7 | 0.3 | MIC [10]: 80 mg/L; MIC [11]: 80 mg/L; MIC [12]: 40 mg/L; MIC [13]: 1.25 mg/L; MIC [14]: 1.25 mg/L; MIC (streptococcus aronson): 0.08 mg/L; MIC [15]: 10 mg/L |
| CC1(C)S[C@@H]2[C@H](NC(=O)[C@H](NC(=O)Nc3cnc(Nc4ccc(Cl)cc4)nc3O)c3ccc(O)cc3)C(=O)N2[C@H]1C(=O)O [H, D-α-[3-(2-p-chloroanilino-4-hydroxy-5-pyrimidyl)-ureido]-p-hydroxybenzyl-penicillin sodium] | 0.6 | 1.25 | 1.25 | 2.5 | 0.3 | 0.6 | 1 | 2.5 | 2.5 | > 80 | – | – | – | – | – | – | – | – | – | 1.25 | MIC [10]: 80 mg/L; MIC [11]: 2.5 mg/L; MIC [12]: 5 mg/L; MIC [13]: 0.6 mg/L; MIC [14]: 1.25 mg/L; MIC (streptococcus aronson): 0.08 mg/L; MIC [15]: 5 mg/L |
